Source: US12310933B2, “Treatment of demyelinating disorders” (The University of Chicago, priority 2013, dated 2025)

Columns and labels:
[1] = system: differentiating rat oligodendrocyte precursor cells (drOPCs); test: FDA/PI (fluorescein-diacetate/propidium iodide) live/dead cell viability assay, IFN-γ challenge; assay type: cell-based
Text: Interferon-γ is an inflammatory cytokine that is thought to contribute to multiple sclerosis exacerbations, therefore, treatment of cultured cells of the oligodendrocyte lineage with interferon-γ provides a useful cellular model of MS-related inflammation. drOPCs were isolated and purified to >95% homogeneity from 6-7 day old Sprague-Dawley rat cortices by immunopanning as previously described (Chan et al. 2004 Neuron 43:2; 183-191). Briefly, rat cortices were extracted, diced, and digested with papain at 37° C. Cells were then triturated and resuspended in panning buffer containing insulin, then sequentially immunopanned at room temperature on three plates containing Ran-2, GalC, and O4 antibodies from hybridomal supernatant. The remaining O4^+GalC^− OPCs were removed from the plates with trypsin, resuspended in growth media, and seeded at 37° C. onto pDL-coated flasks to facilitate proliferation. Once sufficient numbers were reached, OPCs were split, plated in differentiation media at 200,000 cells/well, and allowed to differentiate for 24 hours. […] Following 48 hours of treatment, media was removed and the cells were incubated in FDA/PI (fluorescein-diacetate/propidium iodide) for 3 minutes, rinsed with 1×PBS, and imaged for live/dead cell quantification. In living cells, non-fluorescent FDA is converted into fluorescein, giving off a bright green fluorescence. PI is membrane impermeable and therefore excluded from live cells. Therefore, green cells indicate viable cells and red cells indicate non-viable cells. […] Treatment with 200 U/ml IFN-γ alone reduced the number of green cells and increased the number of red cells (C). […] FIG. 2B illustrates the quantitation of the experiment in FIG. 2a. […] Treatment with IFN-γ alone caused a roughly 40-50% decrease in cell survival. […] Data is presented as the mean+/−SEM for an N=3/group. (*p<0.05, **p<0.005)

[2] = system: cultured rat cerebellar slices; test: Myelin basic protein and toluidine blue staining of ex vivo cultured cerebellar slices treated with IFN-γ; assay type: cell-based; settings: seven days
Method: Briefly, cerebellar sections were prepared from 6 day old Sprague-Dawley rat pups. […] Two to three sections were collected per well and grown in growth media with Fungizone. […] Sections were then stained for myelin-basic protein (A-E) and toluidine blue (F-H), used to visualize myelin and neuronal cytoarchitecture.

[3] = system: SJL mice with remitting/relapsing EAE; test: Remitting/relapsing EAE (PLP139-151), clinical scores; assay type: in vivo, mouse
[4] = system: differentiating rat oligodendrocyte precursor cells (drOPCs); test: TUNEL assay for IFN-γ induced apoptosis; assay type: cell-based
Method: Cells were isolated as described previously and plated in chamber slides at 20,000 cells/chamber. Cells were then treated with the same IFN-γ and guanabenz protocol as described previously, then subjected to a TUNEL assay. […] FIG. 3B illustrates the quantitation of the experiment in FIG. 3a. […] Error bars represent mean±SEM for an N=3/group (*p<0.05, **p<0.005, ***p<0.0005)

[5] = system: C57BL/6J mice with chronic EAE; test: Guanabenz/interferon co-administration in chronic EAE, onset of clinical symptoms; assay type: in vivo, mouse; settings: for onset of clinical symptoms: daily from post immunization day 7
Text: Eight week old C57BL/6J female mice were immunized with MOG35-55/CFA to induce chronic EAE. […] Mice were scored daily for clinical symptoms (0=healthy, 1=flaccid tail, 2=ataxia and/or paresis of hindlimbs, 3=paralysis of hindlimbs and/or paresis of forelimbs, 4=tetraparalysis, 5=moribund or death). […] Onset of clinical symptoms began at approximately day 12 in saline-treated mice and at approximately day 13 in mice treated with interferon alone. […] While preferred embodiments of the present invention have been shown and described herein, it will be obvious to those skilled in the art that such embodiments are provided by way of example only. Numerous variations, changes, and substitutions will now occur to those skilled in the art without departing from the invention. It should be understood that various alternatives to the embodiments of the invention described herein may be employed in practicing the invention. It is intended that the following claims define the scope of the invention and that methods and structures within the scope of these claims and their equivalents be covered thereby.

[6] = system: C57BL/6J mice with experimental autoimmune encephalitis (EAE); test: Chronic EAE (MOG35-55), clinical scores and symptom onset; assay type: in vivo, mouse
[7] = 5.0 μM guanabenz co-treatment with IFN-γ
[8] = interferon-beta 5,000 U/day/mouse alone

## N=C(N)N/N=C/c1c(Cl)cccc1Cl [guanabenz]
[1]; 1.25 μM guanabenz + 200 U/ml IFN-γ, 48 hours
  cell viability (green/red cells, FDA/PI): partially restored viability
[1]; 1.25 μM guanabenz + IFN-γ
  increase in cell survival compared to IFN-γ alone: roughly 25%
[1]; 2.5 μM guanabenz + 200 U/ml IFN-γ, 48 hours
  cell viability (green/red cells, FDA/PI): partially restored viability
[1]; 2.5 μM guanabenz + IFN-γ
  increase in cell survival compared to IFN-γ alone: roughly 25%
[1]; 5.0 μM guanabenz + IFN-γ
  cell survival (FIG. 2B): increased survival almost to control levels
[1]; 5.0 μM guanabenz alone, no IFN-γ, 48 hours
  cell viability (green and red cells, FDA/PI): does not impact cell viability
[1]; guanabenz alone vs untreated control
  percent survival (FIG. 2B): comparable percent survival
[2]; 2.5 μM guanabenz + 100 U/ml IFN-γ
  myelin fiber and axonal structure: restored intact, long myelin fiber and axonal structure
[2]; 5.0 μM guanabenz + 100 U/ml IFN-γ
  myelin fiber and axonal structure: restored intact, long myelin fiber and axonal structure
[2]; 10.0 μM guanabenz + 100 U/ml IFN-γ
  myelin fiber and axonal structure: restored intact, long myelin fiber and axonal structure
[3]; 8 mg/kg IP daily from beginning of remission
  average decrease in relapse severity: about 50%
[3]; 16 mg/kg IP daily from onset of remission
  average decrease in relapse severity: about 40%
[3]; 16 mg/kg/day IP
  symptom severity during the remission phase, compared to vehicle: greater decrease in symptom severity during the remission phase
[4]; [7]
  IFN-γ induced apoptosis (TUNEL, photomicrographs): reduced IFN-γ induced apoptosis
  reduction of IFN-γ induced apoptosis compared to IFN-γ alone: about 87.5%
[5]; guanabenz 8 mg/kg alone
  onset of clinical symptoms: ~18 days
[6]; 4 mg/kg/day
  clinical score by days post symptom onset: Neither 4 mg/kg/day nor 16 mg/kg/day caused a significant reduction in clinical score
[6]; 4 mg/kg/day IP from PID 7
  average symptom onset: 19 days
[6]; 8 mg/kg/day
  clinical score by days post symptom onset (symptom severity): significantly reduced symptom severity
[6]; 8 mg/kg/day IP from PID 7
  average symptom onset: about 22 days
[6]; 16 mg/kg/day
  clinical score by days post symptom onset: Neither 4 mg/kg/day nor 16 mg/kg/day caused a significant reduction in clinical score
[6]; 16 mg/kg/day IP from PID 7
  average symptom onset: about 25 days
[6]; all guanabenz doses (4-16 mg/kg/day), IP daily from PID 7
  delay in symptom onset: significant delay in symptom onset

B1: IFN-γ: inflammatory cytokine used to challenge cultured oligodendrocyte lineage cells and cerebellar slices (protein, UniProt P01579 24-161, looked up)
Interferon gamma: QDPYVKEAENLKKYFNAGHSDVADNGTLFLGILKNWKEESDRKIMQSQIVSFYFKLFKNFKDDQSIQKSVETIKEDMNVKFFNSNKKKRDDFEKLTNYSVTDLNVQRKAIHELIQVMAELSPAAKTGKRKRSQMLFRG
[1]; IFN-γ alone, 200 U/ml, 48 hours
  decrease in cell survival: 40-50%
[4]; IFN-γ alone
  increase in apoptosis compared to control cells: 2-3 fold

B2: interferon-beta (protein, UniProt P01575 22-182, looked up)
Interferon beta: INYKQLQLQERTNIRKCQELLEQLNGKINLTYRADFKIPMEMTEKMQKSYTAFAIQEMLQNVFLVFRNNFSSTGWNETIVVRLLDELHQQTVFLKTVLEEKQEERLTWEMSSTALHLKSYYWRVQRYLKLMKYNSYAWMVVRAEIFRNFLIIRRLTRNFQN
[5]; [8]
  delay of onset of clinical symptoms: did not significantly delay onset of clinical symptoms
  onset of clinical symptoms: ~13 days
